{"source": "patent US4985445A", "about": "“Cancer cell metastasis inhibitors and novel compounds” (Meiji Seika Kaisha, Ltd., priority 1988, dated 1991)", "key": {"[1]": {"assay": "Acute toxicity (LD50) by mice", "conditions": "mouse, in vivo, ip"}, "[2]": {"system": "murine tumor cell line L 929", "assay": "Cytotoxic activity against L 929 (growth observed with inverted microscope, 4 days);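 for growth: + means growth and ± means marked inhibition and - means cell death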", "format": "cell-based", "conditions": "for Growth: 4 days", "protocol": "The B16 subline of high pulmonary metastatic potential and murine tumor cell line L 929 were cultured in DME medium supplemented with 10% bovine fetal serum at 37° C. in the presence of 5% CO2.\nThe B16 subline of high pulmanary metastatic potential and murine tumor cell line L 929 were cultured in DME medium supplemented with 10% bovine fetal serum at 37° C. in the presence of 5% CO2."}, "[3]": {"system": "B16 subline of high pulmonary metastatic potential", "assay": "Inhibition of pulmonary metastasis of B16 subline pretreated with compound and injected i.v. into BDF1 mice", "format": "in vivo, murine; mouse BDF1", "conditions": "for Pulmonary Metastasis, Mouse 1 / Pulmonary Metastasis, Mouse 2 / Pulmonary Metastasis, Mouse 3 / Pulmonary Metastasis (Mean ± Standard Deviation): 14 days; for Pulmonary Metastasis (Mean ± Standard Deviation): None 32 ± 3.0; for Pulmonary Metastasis, %: None = 100", "protocol": "Based on the method described priviously (Method in Cancer Research, 15, 399-439, 1978), a subline of high metastatic potential (high pulmonary colonization) was selected from murine melanoma B16 by repeating the i.v. transplantation of the tumor cells in BDF1 mice and the isolation of pulmonary metastatic clones.\nEvaluation of the metastasis inhibiting activity was performed based on the method described previously (Proc. Natl Acad. Sci. USA, 83, 1752-1756, 1986, Cancer Research, 46, 858-862, 1986).\nFirstly, the B16 subline of high metastatic potential was inoculated into Dulbecco's ME medium (DME medium) supplemented with 10% bovine fetal serum and the compound represented by general formula (I) described above was added thereto.\nThe B16 subline of high pulmonary metastatic potential was inoculated into DME medium supplemented with 10% bovine fetal serum and 30, 100 or 300 μg/ml of N (3-phenylpropyl)-1-deoxynojirimycin was added thereto followed by incubation at 37° C. for 3 days in the presence of 5% CO2.\nInhibition of metastasis was examined in a manner similar to Test Example 2 except that N-(3-phenyl-2-propenyl)-1-deoxy-nojirimycin and N-(3-p-chlorophenyl-3-methyl-2-propenyl)-1-deoxynojirimycin were used instead of N-(3-phenylpropyl)-1-deoxynojirimycin in Test Example 2. In this test example, however, 2.5×10^5 cells each of the B16 subline were transplanted to 3 mice for each group.\nThe B16 subline of high pulmonary metastatic potential was inoculated into DME medium supplemented with 10% bovine fetal serum and 30 μg/ml of N-(4-phenoxy-trans-2-butenyl)-1-deoxynojirimycin was added thereto followed by incubation at 37° C. for 3 days in the presence of 5% CO2. […] The number of colonies of the B16 subline formed on the surface of and in the lung was counted.\nInhibition of metastasis was examined in a manner similar to Test Example 5 except that N-(2-phenoxyethyl)-1-deoxynojirimycin was used instead of N-(4-phenoxy-trans-2-butenyl)-1-deoxynojirimycin in Test Example 5.\nThe B16 sibline of high pulmonary metastatic potential was inoculated into DME medium supplemented with 10% bovine fetal serum and 10 μg/ml of D-glucaro-δ-lactam calcium salt was added thereto followed by incubation at 37° C. for 3 days in the presence of 5% CO2. […] The number of the colonies formed on the surface of and in the lung was counted.\nInhibition of metastasis was examined in a manner similar to Test Example 8 except that D-glucaro-δ-lactam methyl ester and D-glucaro-δ-lactam ethyl ester were used instead of D-glucaro-δ-lactam calcium salt in Test Example 8.\nThe B16 subline of high pulmonary metastatic potential was inoculated into DME medium supplemented with 10% bovine fetal serum and 10 μg/ml of 2,6-di-O-(acetylsalicyloyl)-D-gluco-δ-lactam was added thereto followed by incubation at 37° C. for 3 days in the presence of 5% CO2.\nThe B16 subline of high pulmonary metastatic potential was inoculated into DME medium supplemented with 10% bovine fetal serum and 30 μg/ml of 6-O-triphenylmethyl-D-gluco-δ-lactam was added thereto followed by incubation at 37° C. for 3 days in the presence of 5% CO2.\nThe B16 subline of high pulmonary metastatic potential was inoculated into DME medium supplemented with 10% bovine fetal serum and 30 μg/ml of 1-deoxynojirimycin was added thereto followed by incubation at 37° C. for 3 days in the presence of 5% CO2."}}}
{"compound": "OC[C@@H]1[C@@H](O)[C@H](O)[C@@H](O)CN1CCCc1ccccc1", "note": "[N-(3-Phenylpropyl)-1-deoxynojirimycin, N-(3-phenylpropyl)-1-deoxynojirimycin]", "values": [{"measurement": "LD50", "setting": "[1]", "value": "> 500", "unit": "mg/kg"}, {"measurement": "Cytotoxicity (in words)", "setting": "[2]; L 929, even at a concentration as high as 100 μg/ml", "value": "did not show marked cytotoxicity"}, {"measurement": "Growth", "setting": "[2]; Table 2, L 929, 0.5 μg/ml", "value": "+"}, {"measurement": "Growth", "setting": "[2]; Table 2, L 929, 5 μg/ml", "value": "+"}, {"measurement": "Growth", "setting": "[2]; Table 2, L 929, 50 μg/ml", "value": "+"}, {"measurement": "Growth", "setting": "[2]; Table 2, L 929, 100 μg/ml", "value": "+"}, {"measurement": "Inhibition of metastasis to the lungs (in words)", "setting": "[3]; B16 subline, BDF1 mice", "value": "shows decrease in the number of colonies"}, {"measurement": "Pulmonary Metastasis, Mouse 1", "setting": "[3]; Table 3, 30 μg/ml", "value": 9, "unit": "no."}, {"measurement": "Pulmonary Metastasis, Mouse 2", "setting": "[3]; Table 3, 30 μg/ml", "value": 22, "unit": "no."}, {"measurement": "Pulmonary Metastasis, Mouse 3", "setting": "[3]; Table 3, 30 μg/ml", "value": 37, "unit": "no."}, {"measurement": "Pulmonary Metastasis (Mean ± Standard Deviation)", "setting": "[3]; Table 3, 30 μg/ml", "value": "22.7 ± 14.0", "unit": "no."}, {"measurement": "Pulmonary Metastasis, %", "setting": "[3]; Table 3, 30 μg/ml", "value": 68.8, "unit": "%"}, {"measurement": "Pulmonary Metastasis, Mouse 1", "setting": "[3]; Table 3, 100 μg/ml", "value": 4, "unit": "no."}, {"measurement": "Pulmonary Metastasis, Mouse 2", "setting": "[3]; Table 3, 100 μg/ml", "value": 4, "unit": "no."}, {"measurement": "Pulmonary Metastasis, Mouse 3", "setting": "[3]; Table 3, 100 μg/ml", "value": 6, "unit": "no."}, {"measurement": "Pulmonary Metastasis (Mean ± Standard Deviation)", "setting": "[3]; Table 3, 100 μg/ml", "value": "4.7 ± 1.2", "unit": "no."}, {"measurement": "Pulmonary Metastasis, %", "setting": "[3]; Table 3, 100 μg/ml", "value": 14.7, "unit": "%"}, {"measurement": "Pulmonary Metastasis, Mouse 1", "setting": "[3]; Table 3, 300 μg/ml", "value": 0, "unit": "no."}, {"measurement": "Pulmonary Metastasis, Mouse 2", "setting": "[3]; Table 3, 300 μg/ml", "value": 0, "unit": "no."}, {"measurement": "Pulmonary Metastasis, Mouse 3", "setting": "[3]; Table 3, 300 μg/ml", "value": 3, "unit": "no."}, {"measurement": "Pulmonary Metastasis (Mean ± Standard Deviation)", "setting": "[3]; Table 3, 300 μg/ml", "value": "1 ± 1.7", "unit": "no."}, {"measurement": "Pulmonary Metastasis, %", "setting": "[3]; Table 3, 300 μg/ml", "value": 3.1, "unit": "%"}]}
